Reference: patent publication US11542262B2, “Phosphatidylinositol 3-kinase inhibitors” (NANJING ZHENGXIANG PHARMACEUTICALS CO., LTD., priority 2019, dated 2023)

Each compound was assayed against PI3Kγ (Homo sapiens, UniProt P48736) (assay: ADP-Glo luminescent assay, enzymatic activity of PI3K gamma). Settings: ATP 25 μM; read-out: PI3K gamma (nM) inhibitory activity (IC50).
Format: biochemical
Procedure: The compounds would be tested from 1 or 10 μM, 3-fold dilution for 10 doses, in duplicate.
Compound preparation: Dilute a compound to 100× of the final desired highest inhibitor concentration in reaction by 100% DMSO. Transfer 100 μl of this compound dilution to a well in a 96-well plate and serially dilute it with DMSO for a total of 10 concentrations.
Kinase reaction: Prepare a solution of PI3K in 1× kinase buffer at 2-fold the final concentration of each reagent in the assay. Control wells contain 1× kinase buffer without enzyme. Prepare substrate solution of PIP2 substrate and ATP in 1× kinase reaction buffer at 2-fold of the final concentration. Add concentration substrate solution to each well to the final concentration. Cover the assay plate, shake to mix, and incubate at room temperature for 1 hour. Add 5 μl of ADP-Glo reagent to each well to stop the reaction. […] Add 10 ul Kinase Detection Reagent to each well, shake 1 min, equilibrate for 30 min before reading on a luminescence plate reader.
Data Analysis: Convert RLU values to percent inhibition values as Percent inhibition=(max−sample RLU)/(max−min)*100. “min”—no enzyme control; “max”—DMSO control. Fit the data in XLFit excel add-in version 5.4.0.8 to obtain IC50 values. Y=Bottom+(Top−Bottom)/(1+(IC50/X)^HillSlope).

Chain of PI3Kγ (P48736 whole entry, species assumed): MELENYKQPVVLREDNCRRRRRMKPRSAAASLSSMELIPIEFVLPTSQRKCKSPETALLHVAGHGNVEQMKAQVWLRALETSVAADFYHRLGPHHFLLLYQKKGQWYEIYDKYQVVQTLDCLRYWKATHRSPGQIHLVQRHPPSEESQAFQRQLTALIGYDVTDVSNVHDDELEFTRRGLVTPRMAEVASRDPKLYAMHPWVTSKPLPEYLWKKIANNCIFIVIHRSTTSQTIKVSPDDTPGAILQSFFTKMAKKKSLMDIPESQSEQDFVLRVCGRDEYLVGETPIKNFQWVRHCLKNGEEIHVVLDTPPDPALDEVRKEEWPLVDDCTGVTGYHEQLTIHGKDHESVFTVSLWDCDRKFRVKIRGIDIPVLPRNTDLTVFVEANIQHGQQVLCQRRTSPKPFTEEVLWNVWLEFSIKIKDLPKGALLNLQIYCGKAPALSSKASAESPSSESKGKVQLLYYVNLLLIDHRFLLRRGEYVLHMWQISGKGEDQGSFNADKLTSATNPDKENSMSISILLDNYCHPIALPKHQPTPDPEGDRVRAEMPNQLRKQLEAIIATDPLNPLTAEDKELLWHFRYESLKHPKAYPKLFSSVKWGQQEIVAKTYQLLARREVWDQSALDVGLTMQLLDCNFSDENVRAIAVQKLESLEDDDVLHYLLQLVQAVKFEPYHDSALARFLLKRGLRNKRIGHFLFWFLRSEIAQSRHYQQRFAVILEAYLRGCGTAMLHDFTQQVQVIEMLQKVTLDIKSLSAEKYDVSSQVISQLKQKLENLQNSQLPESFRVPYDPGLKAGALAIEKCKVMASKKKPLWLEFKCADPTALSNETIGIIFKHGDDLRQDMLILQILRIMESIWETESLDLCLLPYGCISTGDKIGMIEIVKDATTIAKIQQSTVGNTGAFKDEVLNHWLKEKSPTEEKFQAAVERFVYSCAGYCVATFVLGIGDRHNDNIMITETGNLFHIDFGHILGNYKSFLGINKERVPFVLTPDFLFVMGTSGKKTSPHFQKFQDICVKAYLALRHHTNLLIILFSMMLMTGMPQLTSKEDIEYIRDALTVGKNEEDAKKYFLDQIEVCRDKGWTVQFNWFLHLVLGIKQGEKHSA

Row | SMILES | IC50 [nM]
1 | CC(=O)Nc1nc(C(F)F)c(-c2cc3c(c([S@@+](C)[O-])c2)C(=O)N([C@@H](C)C2CC2)C3)s1 (racemic) [Compound 18, N-(5-(2-((S)-1-cyclopropylethyl)-7-(methylsulfinyl)-1-oxoisoindolin-5-yl)-4-(difluoromethyl)thiazol-2-yl)acetamide] | 16
2 | Cc1nc(NC(=O)C2CC2)sc1-c1cc2c(c(P(C)(C)=O)c1)C(=O)N([C@@H](C)C1CC1)C2 [Compound 3, (S)-N-(5-(2-(1-cyclopropylethyl)-7-(dimethylphosphoryl)-1-oxoisoindolin-5-yl)-4-methylthiazol-2-yl)cyclopropanecarboxamide] | 7.7
3 | CC(=O)Nc1nc(C)c(-c2ccc3c(n2)CN([C@@H](C)C2CC2)C3=O)s1 [Compound 9, (S)-N-(5-(6-(1-cyclopropylethyl)-5-oxo-6,7-dihydro-5H-pyrrolo[3,4-b]pyridin-2-yl)-4-methylthiazol-2-yl)acetamide] | 22
4 | CC(=O)Nc1nc(C)c(-c2cc3c(c(C(=O)O)n2)C(=O)N([C@@H](C)C2CC2)C3)s1 [Compound 30, (S)-6-(2-acetamido-4-methylthiazol-5-yl)-2-(1-cyclopropylethyl)-3-oxo-2,3-dihydro-1H-pyrrolo[3,4-c]pyridine-4-carboxylic acid] | 56
5 | CC(=O)Nc1nc(C)c(-c2cc3c(c(C(N)=O)n2)C(=O)N([C@@H](C)C2CC2)C3)s1 [Compound 31, (S)-6-(2-acetamido-4-methylthiazol-5-yl)-2-(1-cyclopropylethyl)-3-oxo-2,3-dihydro-1H-pyrrolo[3,4-c]pyridine-4-carboxamide] | 2.3

Second part, the compound after the results:

Row | IC50 [nM] | SMILES
6 | 9 | CC(=O)Nc1nc(C)c(-c2cc3c(c(N4CCOCC4)n2)C(=O)N(C(C)C(F)(F)F)C3)s1 (stereo in doubt) [Compound 37, (S)-N-(4-methyl-5-(4-morpholino-3-oxo-2-(1,1,1-trifluoropropan-2-yl)-2,3-dihydro-1H-pyrrolo[3,4-c]pyridin-6-yl)thiazol-2-yl)acetamide]
7 | 6.5 | CC(=O)Nc1nc(C)c(-c2cc3c(c(C(=O)N4CCOCC4)n2)C(=O)N([C@@H](C)C2CC2)C3)s1 [Compound 33, (S)-N-(5-(2-(1-cyclopropylethyl)-4-(morpholine-4-carbonyl)-3-oxo-2,3-dihydro-1H-pyrrolo[3,4-c]pyridin-6-yl)-4-methylthiazol-2-yl)acetamide]
8 | 2.6 | [2H]C([2H])([2H])Oc1nc(-c2sc(NC(C)=O)nc2C)cc2c1C(=O)N([C@@H](C)C1CC1)C2 [Compound 43, (S)-N-(5-(2-(1-cyclopropylethyl)-4-(methoxy-d3)-3-oxo-2,3-dihydro-1H-pyrrolo[3,4-c]pyridin-6-yl)-4-methylthiazol-2-yl)acetamide]
9 | 0.8 | CC(=O)Nc1nc(C)c(-c2cc3c(c(NC(=O)C4CC4C#N)n2)C(=O)N([C@@H](C)C2CC2)C3)s1 (stereo partly drawn) [Compound 45, N-(6-(2-acetamido-4-methylthiazol-5-yl)-2-((S)-1-cyclopropylethyl)-3-oxo-2,3-dihydro-1H-pyrrolo[3,4-c]pyridin-4-yl)-2-cyanocyclopropane-1-carboxamide]
10 | 0.61 | CC(=O)Nc1nc(C)c(-c2cc3c(c(N4CCC(O)C4)n2)C(=O)N([C@@H](C)C2CC2)C3)s1 (stereo partly drawn) [Compound 47, N-(5-(2-((S)-1-cyclopropylethyl)-4-(3-hydroxypyrrolidin-1-yl)-3-oxo-2,3-dihydro-1H-pyrrolo[3,4-c]pyridin-6-yl)-4-methylthiazol-2-yl)acetamide]
11 | 0.65 | CC(=O)Nc1nc(C)c(-c2cc3c(c(OC4CCOC4)n2)C(=O)N([C@@H](C)C2CC2)C3)s1 (stereo partly drawn) [Compound 51, N-(5-(2-((S)-1-cyclopropylethyl)-3-oxo-4-((tetrahydrofuran-3-yl)oxy)-2,3-dihydro-1H-pyrrolo[3,4-c]pyridin-6-yl)-4-methylthiazol-2-yl)acetamide]
